Test results taken from ChEMBL document CHEMBL6153150, “Design, Synthesis, and Biological Evaluation of Chiral-Proline Derivatives as Novel HSP90 Inhibitors” (ACS Med Chem Lett, 2025).
Values belong to the compound of their own block, whether it stands above or below them. The source made the active and inactive calls. The calls are words filed in the database; no cut-off is given here.

How the values were obtained:
[1] = biological target: T1, Heat shock protein HSP90 (Homo sapiens, UniProt P07900+P08238); experiment: Binding affinity to Hsp90 (unknown origin) assessed as dissociation constant incubated for 30 mins by fluorescence spectrophotometric analysis; format: protein assay
[2] = biological target: T1, Heat shock protein HSP90; experiment: Inhibition of Hsp90 (unknown origin) ATPase activity assessed as decrease in absorbance using PEP as substrate in presence of ATP and NADH by absorbance based assay; format: protein assay
[3] = Oral bioavailability in rat at 50 mg/kg and measured upto 24 hr by LC-MS/MS analysis; format: ADME, organism-based; details: in vivo
[4] = tested on: SK-BR-3; experiment: Antiproliferative activity against human SK-BR-3 cells assessed as cell viability inhibition rate incubated for 72 hr by MTT assay; format: functional, cell-based; details: SK-BR-3, 72 h
[5] = Cmax in rat plasma at 50 mg/kg, po and measured upto 24 hr by LC-MS/MS analysis; format: ADME, organism-based
[6] = tested on: A549; experiment: Antiproliferative activity against human A549 cells assessed as cell viability inhibition rate incubated for 72 hr by MTT assay; format: functional, cell-based; details: A549, 72 h
[7] = Clearance in rat plasma at 50 mg/kg, po and measured upto 24 hr by LC-MS/MS analysis; format: ADME, organism-based
[8] = AUC in rat plasma at 50 mg/kg, po and measured upto 24 hr by LC-MS/MS analysis; format: ADME, organism-based
[9] = biological target: T2, Heat shock protein HSP 90-alpha (Homo sapiens, UniProt P07900); experiment: Inhibition of HSP90alpha (unknown origin) incubated for 12 to 16 hrs by FP competition assay
[10] = tested on: MCF7; experiment: Antiproliferative activity against human MCF7 cells assessed as cell viability inhibition rate incubated for 72 hr by MTT assay; format: functional, cell-based; details: MCF7, 72 h
[11] = Selectivity ratio of IC50 for inhibition of GRP94 (unknown origin) to IC50 for inhibition of HSP90alpha (unknown origin)
[12] = tested on: K562; experiment: Antiproliferative activity against human K562 cells assessed as cell viability inhibition rate incubated for 72 hr by MTT assay; format: functional, cell-based; details: K562, 72 h
[13] = tested on: HCT-116; experiment: Antiproliferative activity against human HCT-116 cells assessed as cell viability inhibition rate incubated for 72 hr by MTT assay; format: functional, cell-based; details: HCT-116, 72 h
[14] = Tmax in rat plasma at 50 mg/kg, po and measured upto 24 hr by LC-MS/MS analysis; format: ADME, organism-based
[15] = biological target: T3, Endoplasmin (Homo sapiens, UniProt P14625); experiment: Inhibition of GRP94 (unknown origin) incubated for 12 to 16 hrs by FP competition assay
[16] = Half life in rat plasma at 50 mg/kg, po and measured upto 24 hr by LC-MS/MS analysis; format: ADME, organism-based
[17] = biological target: T3, Endoplasmin; experiment: Binding affinity to GRP94 (unknown origin) assessed as dissociation constant
[18] = biological target: T2, Heat shock protein HSP 90-alpha; experiment: Binding affinity to Hsp90alpha (unknown origin) assessed as dissociation constant

T3 sequence (P14625 whole entry): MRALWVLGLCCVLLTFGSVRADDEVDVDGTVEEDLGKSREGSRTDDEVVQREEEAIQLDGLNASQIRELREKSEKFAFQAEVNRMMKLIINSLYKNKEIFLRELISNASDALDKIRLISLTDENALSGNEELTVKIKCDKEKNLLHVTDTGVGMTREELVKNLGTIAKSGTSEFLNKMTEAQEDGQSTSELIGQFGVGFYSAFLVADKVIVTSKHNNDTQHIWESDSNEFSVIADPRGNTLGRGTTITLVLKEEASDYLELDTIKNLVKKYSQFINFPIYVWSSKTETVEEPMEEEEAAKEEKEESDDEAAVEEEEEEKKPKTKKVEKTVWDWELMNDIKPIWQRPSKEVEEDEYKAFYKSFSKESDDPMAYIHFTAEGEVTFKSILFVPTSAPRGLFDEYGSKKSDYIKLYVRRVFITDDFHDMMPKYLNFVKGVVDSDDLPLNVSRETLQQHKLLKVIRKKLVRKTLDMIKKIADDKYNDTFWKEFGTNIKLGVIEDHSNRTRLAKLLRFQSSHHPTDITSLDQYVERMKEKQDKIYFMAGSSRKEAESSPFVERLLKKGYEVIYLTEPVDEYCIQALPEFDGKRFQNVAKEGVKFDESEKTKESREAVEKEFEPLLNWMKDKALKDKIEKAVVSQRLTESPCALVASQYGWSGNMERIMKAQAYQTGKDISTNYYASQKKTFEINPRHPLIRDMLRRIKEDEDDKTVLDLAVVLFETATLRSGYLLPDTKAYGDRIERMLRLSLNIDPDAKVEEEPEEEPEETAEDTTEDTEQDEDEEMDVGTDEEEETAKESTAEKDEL

Activity [1]: inactive | inhibition [2]: inactive
Structure (SMILES): CC(C)c1cc(C(=O)N2C[C@@H](c3ccccc3)C[C@@H]2C(=O)NCC(=O)N2CCCCC2)c(O)cc1O

Activity [1]: inactive | inhibition [2]: inactive
Structure (SMILES): CCN1CCCC1CNC(=O)[C@H]1C[C@H](c2ccccc2)CN1C(=O)c1cc(C(C)C)c(O)cc1O (stereo partly specified)

Activity [1]: inactive | inhibition [2]: inactive
Structure (SMILES): CCCCN(CCCC)C(=O)[C@H]1C[C@H](c2ccccc2)CN1C(=O)c1cc(C(C)C)c(O)cc1O

Kd [1]: 27 nM | IC50 [2]: 310 nM
Structure (SMILES): CC(C)N(Cc1cccnc1)C(=O)[C@H]1CCCN1C(=O)c1cc(C2CC2)c(O)cc1O

Kd [1]: 20 nM | IC50 [2]: 270 nM
Structure (SMILES): CC(C)NC(=O)Oc1ccc2c(c1)CN(C(=O)c1cc(C3CC3)c(O)cc1O)C2

Structure (SMILES): CC(C)c1cc(C(=O)N2C[C@@H](c3ccccc3)C[C@@H]2C(=O)NCCCN2CCOCC2)c(O)cc1O
bioavailability [3]: 5.5% | Kd [1]: 87 nM | IC50 [4]: 210 nM | Cmax [5]: 65.7 µg/mL | IC50 [6]: 28 nM | CL/F [7]: 1.46 mL/min/kg | AUC at 24 h [8]: 186 µg·h/mL | IC50 [9]: 154 nM | IC50 [10]: 61 nM | Ratio IC50 [11]: 5.02 | IC50 [12]: 433 nM | IC50 [13]: 206 nM | Tmax [14]: 0.733 h | IC50 [15]: 773 nM | half-life [16]: 5.8 h

Kd [1]: 532 nM | IC50 [2]: 6940 nM
Structure (SMILES): O=C(c1ccccc1O)N1Cc2ccccc2C1

Activity [1]: inactive | inhibition [2]: inactive
Structure (SMILES): CCN1CCN(C(=O)[C@H]2C[C@H](c3ccccc3)CN2C(=O)c2cc(C(C)C)c(O)cc2O)CC1

Kd [1]: 136 nM | IC50 [2]: 237 nM
Structure (SMILES): CC(C)N(Cc1cccnc1)C(=O)[C@H]1CCCN1C(=O)c1cc(C2CC2)c(OP(=O)(O)O)cc1O

Structure (SMILES): O=C(NCCCN1CCOCC1)[C@H]1C[C@H](c2ccccc2)CN1C(=O)c1cc(C2CC2)c(O)cc1O
bioavailability [3]: 7.1% | Kd [1]: 68 nM | IC50 [4]: 105 nM | Cmax [5]: 76.5 µg/mL | IC50 [6]: 31 nM | CL/F [7]: 1.75 mL/min/kg | AUC at 24 h [8]: 239 µg·h/mL | IC50 [9]: 136 nM | IC50 [10]: 72 nM | Ratio IC50 [11]: 1.49 | IC50 [12]: 403 nM | IC50 [13]: 187 nM | Tmax [14]: 0.883 h | IC50 [15]: 203 nM | half-life [16]: 6.9 h

Structure (SMILES): CC(C)c1cc(C(=O)N2C[C@@H](c3ccccc3)C[C@@H]2C(=O)NCc2ccccc2Cl)c(O)cc1O
Kd [1]: 351 nM | IC50 [4]: 572 nM | IC50 [6]: 72 nM | IC50 [10]: 103 nM | IC50 [12]: 633 nM | IC50 [13]: 461 nM

Structure (SMILES): CC(C)c1cc(C(=O)N2Cc3ccc(CN4CCN(C)CC4)cc3C2)c(O)cc1O [ONALESPIB]
Kd [17]: 30 nM | Kd [1]: 27 nM | IC50 [4]: 197 nM | IC50 [6]: 131 nM | IC50 [9]: 50 nM | IC50 [10]: 53 nM | Ratio IC50 [11]: 0.6 | IC50 [12]: 465 nM | IC50 [13]: 102 nM | IC50 [15]: 30 nM | Kd [18]: 50 nM

Structure (SMILES): COc1ccc(C(C)NC(=O)[C@H]2C[C@H](c3ccccc3)CN2C(=O)c2cc(C(C)C)c(O)cc2O)cc1 (stereo partly specified)
Kd [1]: 463 nM | IC50 [4]: 721 nM | IC50 [6]: 172 nM | IC50 [10]: 170 nM | IC50 [12]: 533 nM | IC50 [13]: 652 nM

Structure (SMILES): CC(C)c1cc(C(=O)N2C[C@@H](c3ccccc3)C[C@@H]2C(=O)NCCc2ccccc2)c(O)cc1O
Kd [1]: 32 nM | IC50 [4]: 371 nM | IC50 [6]: 45 nM | IC50 [9]: 137 nM | IC50 [10]: 54 nM | Ratio IC50 [11]: 2.22 | IC50 [12]: 623 nM | IC50 [13]: 271 nM | IC50 [15]: 304 nM

Structure (SMILES): CC(C)C(C)NC(=O)[C@H]1C[C@H](c2ccccc2)CN1C(=O)c1cc(C2CC2)c(O)cc1O (stereo partly specified)
Kd [1]: 345 nM | IC50 [4]: 787 nM | IC50 [6]: 105 nM | IC50 [10]: 204 nM | IC50 [12]: 631 nM | IC50 [13]: 507 nM

Structure (SMILES): O=C(NCc1ccccc1)[C@H]1C[C@H](c2ccccc2)CN1C(=O)c1cc(C2CC2)c(O)cc1O
Kd [1]: 67 nM | IC50 [4]: 307 nM | IC50 [6]: 42 nM | IC50 [10]: 63 nM | IC50 [12]: 451 nM | IC50 [13]: 461 nM

Structure (SMILES): CC(C)c1cc(C(=O)N2C[C@@H](c3ccccc3)C[C@@H]2C(=O)NC(C)c2ccccc2)c(O)cc1O (stereo partly specified)
Kd [1]: 232 nM | IC50 [4]: 703 nM | IC50 [6]: 87 nM | IC50 [10]: 113 nM | IC50 [12]: 621 nM | IC50 [13]: 514 nM
